The text below walks through data of patent US20230114207A1, “THE COMBINATION OF CYCLIN DEPENDENT KINASE 7 INHIBITOR AND IMMUNOTHERAPY FOR TREATMENT OF CANCER” (Dana-Farber Cancer Institute, Inc., priority 2019, published 2023).

In assay [1] the test system is tumor-infiltrating immune cells, RPP orthotopic model. Briefly: Immune profiling flow cytometry of tumor-bearing lung. The format is in vivo, mouse. The protocol: Mice were humanely euthanized, and mouse lungs were perfused using sterile PBS through heart perfusion from the left ventricle after BAL fluid collection. The whole lung was cut and minced into small pieces followed by digestion in collagenase D (Sigma-Aldrich) and DNase I (Sigma-Aldrich) in Hank's Balanced Salt Solution (HBSS) at 37° C. for 30 minutes. After incubation, the digested tissue was subjected to a 70 μm cell strainer (Thermo Fisher Scientific) to obtain single-cell suspensions. Separated cells were treated with 1×red blood cell (RBC) lysis buffer (BioLegend). Live cells were determined by LIVE/DEAD fixable aqua dead cell stain kit (Molecular Probes). The cell pellets were resuspended in PBS with 2% FBS for FAGS analysis. Cells were stained with cell surface markers as indicated followed by fixation/permeabilization (eBioscience). Cells were imaged on BD LSRFortessa (BD Biosciences) and analyzed using FlowJo software (Tree Star).

The test system of the next assay is OT-I CD8^+ T cells. Briefly: Ex vivo OT-I T cell assay. In kind it is cell-based, mouse. The protocol:
The spleen of OT-I mice was minced with a razor and mashed through a 40 µm strainer to form a single-cell suspension. Separated cells were then treated with RBC lysis buffer and a number of 5×10^5 cells were seeded in a 96-well U-bottom plate. For conditioned medium culture assay, RPP631 cells were treated with either DMSO or YKL-5-124 for 48 hr and drug was washed off after first 6-hour treatment. Subsequently, DMSO-conditioned medium or YKL-5-124-conditioned medium were collected and added to above single-cell suspension in a 96-well U-bottom plate in the presence of Ova257-264 peptide (10 μg/ml, GenScript, Cat #RP10611) for 4 days. Alternatively, DMSO or YKL-5-124 was added directly to single-cell suspension in the presence of Ova257-264 peptide for 4 days in the T cell assay medium (complete RPMI with HEPES, sodium pyruvate, MEM nonessential amino acids and 2-mercaptethonal). T cell activation markers CD69, TNFα. and IFNγ were analyzed by flow cytometry.

Assay [2] deals with C-terminal domain (CTD) phosphorylation of RNA Pol II. Description: Western blotting of RNA Pol II CTD phosphorylation in SCLC lines. In kind it is cell-based, mouse, human. The conditions noted are these: 24 hr. Here is the method:
Cells in culture were collected by centrifuging at 1,500 rpm and then washed with ice-cold PBS twice to completely remove residual medium. RIPA lysis buffer (Thermo Fisher Scientific, Cat #89900) supplemented with Halt™ Protease and Phosphatase Inhibitor Cocktail (Thermo Fisher Scientific, Cat #78440) was added to cell pellets to extract protein. Protein concentrations in lysates were measured by Pierce™ BCA Protein Assay Kit (Thermo Fisher Scientific, Cat #23225) and followed by the addition of SDS loading buffer (6×) and heated at 95° C. for 5 min. Equal amount of protein samples was subjected to 4-20% gradient gel SDS-PAGE and transferred to a nitrocellulose membrane (Bio-Rad, Cat #1704271). The membrane was blocked in Odyssey® Blocking Buffer (LI-COR, Cat #927-50003) at room temperature for 1 hour and incubated with appropriate antibodies at 4° C. overnight (Key Resources Table). Antibodies were diluted in TBST (TBS with 0.1% Tween) with 20% LI-COR Odyssey Blocking Buffer. On the next day, the membrane was washed with TBST (TBS with 0.1% Tween) four times and incubated with appropriate secondary antibodies (LI-COR, anti-Rabbit, Cat #925-32213; anti-Mouse, Cat #925-68072) at room temperature for 1 hour. Membranes were imaged using the LI-COR Odyssey® Imaging System.

In assay [3] the test system is HAP1 cells expressing CDK7 wild-type (WT). Briefly: RT-qPCR of TNF and CXCL10 in HAP1 CDK7 WT cells. The format is cell-based, human. As to conditions: 100 nM, 48 hr. Here is the method:
(§1) Cell pellets were collected and then subjected to total RNA extraction using RNeasy Plus Mini Kit (QIAGEN, Cat #74136) according to the manufacturer's instructions, or using TRIzol:Chloroform phase-separation by centrifugation followed by RNA precipitation using isopropanol. The extracted RNA was reversely transcribed into cDNA using the High-Capacity RNA-to-cDNA™ Kit (Thermo Fisher Scientific, Cat #4387406) according to the manufacturer's instructions. The obtained cDNA samples were diluted and used for RT-qPCR. PowerUp™ SYBR™ Green Master Mix (Thermo Fisher Scientific, Cat #A25742) or TaqMan Gene Expression Master Mix (Life Technologies, Cat #4369514). Gene specific primers with sequences listed in Table 3 were used for PCR amplification and detection on the StepOnePlus™ Real-Time PCR System (Thermo Fisher Scientific). RT-qPCR data were normalized to Actb (mouse cells) or GUSB (human cells) and presented as fold changes of gene expression in the test sample compared to the control.
A general note: Real-time PCR tracks product formation cycle by cycle.

In another assay the test system is cGAS-STING pathway. Briefly: cGAS-STING pathway analysis (western blotting; cGAS knockout RT-qPCR). The format is cell-based, mouse, human. The conditions noted are these: DMS79, RPP631, cGAS knockout RPP631. Here is the method: as §1
Cells in culture were collected by centrifuging at 1,500 rpm and then washed with ice-cold PBS twice to completely remove residual medium. […] Protein concentrations in lysates were measured by Pierce™ BCA Protein Assay Kit (Thermo Fisher Scientific, Cat #23225) and followed by the addition of SDS loading buffer (6×) and heated at 95° C. for 5 min. […]

The next assay concerns the target T1, CDK7 (Mus musculus, UniProt Q03147).
T1 construct: from tissue
Description: In vivo target engagement by competitive pulldown assay. The conditions noted are these: 10 mg/kg. The protocol: Bio-THZ1 pulldown experiments followed by western blotting of enriched proteins was performed as described in Kwiatkowski, et al., Nature, 2014, 511, 616-620. Briefly, cells were treated with YKL-5-124 or DMSO for 6 hr (in vitro) or 72 hr (in vivo). Following treatment, cells were washed twice with cold PBS and then lysed in the following lysis buffer: 50 mM TrisHCI pH 8.0, 150 mM NaCl, 1% NP-40, 5 mM EDTA, 1 mM DTT, and protease/phosphatase cocktails. Following clearance, lysates were treated with biotinylated THZ1 for pulldown overnight at 4° C. Lysates were further incubated at room temperature for 3 hr to increase the efficiency of covalent bond formation. Lysates were then incubated with streptavidin agarose for pulldown for an additional 2-3 hr at 4° C. Agarose beads were washed 5 times with lysis buffer and then boiled in 2×SDS at 95° C. SDS-page resolved precipitated proteins were probed for the indicated proteins.

T1 sequence (Q03147 2-346 limits assumed): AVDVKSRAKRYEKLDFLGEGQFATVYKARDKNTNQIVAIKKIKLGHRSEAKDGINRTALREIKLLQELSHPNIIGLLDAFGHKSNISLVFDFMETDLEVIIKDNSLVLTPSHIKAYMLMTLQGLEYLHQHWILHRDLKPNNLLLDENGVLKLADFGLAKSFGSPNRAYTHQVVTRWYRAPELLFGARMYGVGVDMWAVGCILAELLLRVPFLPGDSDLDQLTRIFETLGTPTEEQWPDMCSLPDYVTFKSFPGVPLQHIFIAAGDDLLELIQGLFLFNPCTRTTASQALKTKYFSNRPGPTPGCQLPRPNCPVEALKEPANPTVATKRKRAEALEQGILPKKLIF
T1 sequence (Q61458 whole entry partner): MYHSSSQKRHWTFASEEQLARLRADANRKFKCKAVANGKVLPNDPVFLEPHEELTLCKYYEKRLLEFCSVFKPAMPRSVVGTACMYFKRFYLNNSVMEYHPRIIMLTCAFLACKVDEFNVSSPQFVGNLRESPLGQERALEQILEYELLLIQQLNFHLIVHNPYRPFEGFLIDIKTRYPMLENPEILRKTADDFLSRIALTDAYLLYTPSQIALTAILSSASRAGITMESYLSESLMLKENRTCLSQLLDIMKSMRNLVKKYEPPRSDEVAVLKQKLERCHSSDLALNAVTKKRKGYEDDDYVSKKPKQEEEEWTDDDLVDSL
T1 sequence (P51949 whole entry partner): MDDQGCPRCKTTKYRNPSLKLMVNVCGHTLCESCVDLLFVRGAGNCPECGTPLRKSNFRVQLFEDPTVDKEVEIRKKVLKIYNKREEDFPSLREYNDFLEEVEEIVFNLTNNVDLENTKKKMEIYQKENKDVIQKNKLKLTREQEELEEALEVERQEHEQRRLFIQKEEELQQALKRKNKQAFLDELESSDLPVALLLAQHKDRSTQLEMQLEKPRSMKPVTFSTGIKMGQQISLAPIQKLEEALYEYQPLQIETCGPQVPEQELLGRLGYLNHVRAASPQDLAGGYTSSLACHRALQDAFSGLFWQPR

`C=CC(=O)Nc1ccc(C(=O)Nc2n[nH]c3c2CN(C(=O)N[C@H](CN(C)C)c2ccccc2)C3(C)C)cc1` [YKL-5-124]: in assay [1] (7-day treatment), the “CD44^highCD62L^+ effector CD4^+ T cells (CD44^highCD62L^low for the combination)” value is “substantial increase”, the “GzmB^+ CD8^+ T cells percentage” value was “considerable but equivalent increase”, the “ICOS^+ CD4^+ T cells” value was “significantly higher frequencies” and the “frequencies of total CD4^+ T cell infiltrates” value is “no significant change”. In assay [1] (7-day treatment), the “frequencies of total CD8^+ T cell infiltrates” value is reported as “no significant change” and the “tumor-infiltrating CD4^+ T cells expressing Ki67” value is recorded as “modest increase”. Moreover, the “percentages of tumor resident DCs (MHCII^+ CD11c^+ CD103^+)” value in assay [1] (compared to control mice) is on record as “significant increase”. The “CD8^+ T cell activity” value with OT-I CD8^+ T cells (OT-I T cells directly treated) was “No significant effect”. Moreover, the “percentage of CD69^+, TNFα^+ and IFNγ^+ CD8^+ T cells” value in the assay on OT-I CD8^+ T cells (YKL-5-124-conditioned medium of mouse SCLC cells vs DMSO-conditioned medium) is reported as “significant increase”. Also, in assay [2], the “C-terminal domain (CTD) phosphorylation of RNA Pol II (Ser2, Ser5)” value is given as “no effect”. Besides, in assay [3], the “TNF and CXCL10 expression” value is recorded as “significant increase”. Besides, the “dependence of the immune stimulatory effect on the cGAS-STING pathway” value in the assay with cGAS-STING pathway is recorded as “independent of this pathway”. The “target engagement in tumor-bearing mice” value on CDK7 is “further confirmed”.
